In US12077503B2, “Substituted cyclic amides and their use as herbicides” (FMC CORPORATION, priority 2015, dated 2024):

Tests used:
Format in all cases: in vivo
[1] = tested on: corn (Zea mays); assay: Test G Pre-Emergence Protocol; details: Zea mays, pre-emergence, 312 h, evaluated after 13 days; for plant injury at 15.625 g/ha: 15.625 g ai/ha; for plant injury at 15.625 g/ha / plant injury at 250 g/ha: read-out: Corn damage rating (100=total damage to plant; 0=no damage to plant); for plant injury at 62.5 g/ha: 62.5 g ai/ha, 100=total damage to plant, 0=no damage to plant, read-out: plant damage rating, Corn; for plant injury at 250 g/ha: 250 g ai/ha
Method in brief: (§1)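 Test compound in 0.5% Tween 20 acetone/water (50:50) was applied at three rates (15.625, 62.5, 250 g/ha) to soil sown one day earlier. After 13 days plants were scored for injury, where 0 means unaffected and 100 means completely damaged.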

[2] = tested on: redroot pigweed (Amaranthus retroflexus); assay: Test G Pre-Emergence Protocol; details: Amaranthus retroflexus, pre-emergence, 312 h, evaluated after 13 days; for pest or weed control at 15.625 g/ha: 15.625 g ai/ha; for pest or weed control at 15.625 g/ha / pest or weed control at 250 g/ha: read-out: Pigweed, Redroot damage rating (100=total damage to plant; 0=no damage to plant); for pest or weed control at 62.5 g/ha: 62.5 g ai/ha, 100=total damage to plant, 0=no damage to plant, read-out: plant damage rating, Pigweed, Redroot; for pest or weed control at 250 g/ha: 250 g ai/ha
Method in brief: as §1

[3] = tested on: giant foxtail (Setaria faberi); assay: Test G Pre-Emergence Protocol; details: Setaria faberi, pre-emergence, 312 h, evaluated after 13 days; for pest or weed control at 15.625 g/ha: 15.625 g ai/ha; for pest or weed control at 15.625 g/ha / pest or weed control at 250 g/ha: read-out: Foxtail, Giant damage rating (100=total damage to plant; 0=no damage to plant); for pest or weed control at 62.5 g/ha: 62.5 g ai/ha, 100=total damage to plant, 0=no damage to plant, read-out: plant damage rating, Foxtail, Giant; for pest or weed control at 250 g/ha: 250 g ai/ha
Method in brief: as §1

[4] = tested on: velvetleaf (Abutilon theophrasti); assay: Test G Pre-Emergence Protocol; details: Abutilon theophrasti, pre-emergence, 312 h, evaluated after 13 days; for pest or weed control at 15.625 g/ha: 15.625 g ai/ha; for pest or weed control at 15.625 g/ha / pest or weed control at 250 g/ha: read-out: Velvetleaf damage rating (100=total damage to plant; 0=no damage to plant); for pest or weed control at 62.5 g/ha: 62.5 g ai/ha, 100=total damage to plant, 0=no damage to plant, read-out: plant damage rating, Velvetleaf; for pest or weed control at 250 g/ha: 250 g ai/ha
Method in brief: as §1

[5] = tested on: barnyardgrass (Echinochloa crus-galli); assay: Test G Pre-Emergence Protocol; details: Echinochloa crus-galli, pre-emergence, 312 h, evaluated after 13 days; for pest or weed control at 15.625 g/ha: 15.625 g ai/ha, read-out: Barnyard grass damage rating (100=total damage to plant; 0=no damage to plant); for pest or weed control at 62.5 g/ha: 62.5 g ai/ha, 100=total damage to plant, 0=no damage to plant, read-out: plant damage rating, Barnyardgrass; for pest or weed control at 250 g/ha: 250 g ai/ha, read-out: Barnyardgrass damage rating (100=total damage to plant; 0=no damage to plant)
Method in brief: as §1

[6] = tested on: ivy-leaved morning glory (Ipomoea hederacea); assay: Test G Pre-Emergence Protocol; details: Ipomoea, pre-emergence, 312 h, evaluated after 13 days; for pest or weed control at 15.625 g/ha: 15.625 g ai/ha, read-out: Morning-glory, Ivy-leaved damage rating (100=total damage to plant; 0=no damage to plant); for pest or weed control at 62.5 g/ha: 62.5 g ai/ha, 100=total damage to plant, 0=no damage to plant, read-out: plant damage rating, Morningglory, Ivy-leaved; for pest or weed control at 250 g/ha: 250 g ai/ha, read-out: Morningglory, Ivy-leaved damage rating (100=total damage to plant; 0=no damage to plant)
Method in brief: as §1

[7] = tested on: corn (Zea mays); assay: Test G Post-Emergence Protocol; details: Zea mays, post-emergence, 312 h; for plant injury at 15.625 g/ha: 15.625 g ai/ha, evaluated after 13 days (100=total damage to plant; 0=no damage to plant), read-out: Corn damage rating; for plant injury at 62.5 g/ha: 62.5 g ai/ha, read-out: Corn damage rating (100=total damage to plant; 0=no damage to plant); for plant injury at 62.5 g/ha / plant injury at 250 g/ha: evaluated after 13 days; for plant injury at 250 g/ha: 250 g ai/ha, read-out: damage to plant, Corn (100=total damage to plant; 0=no damage to plant)
Method in brief: (§2)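 A glasshouse post-emergence test: 8-day-old plants sprayed at 15.625, 62.5 or 250 g/ha, then grown at 24/16 °C day/night with 14 h light and 65% humidity. Damage rated 13 days later, 0–100.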

[8] = tested on: redroot pigweed (Amaranthus retroflexus); assay: Test G Post-Emergence Protocol; details: Amaranthus retroflexus, post-emergence, 312 h; for pest or weed control at 15.625 g/ha: 15.625 g ai/ha, evaluated after 13 days (100=total damage to plant; 0=no damage to plant), read-out: Pigweed, Redroot damage rating; for pest or weed control at 62.5 g/ha: 62.5 g ai/ha, read-out: Pigweed, Redroot damage rating (100=total damage to plant; 0=no damage to plant); for pest or weed control at 62.5 g/ha / pest or weed control at 250 g/ha: evaluated after 13 days; for pest or weed control at 250 g/ha: 250 g ai/ha, read-out: damage to plant, Pigweed, Redroot (100=total damage to plant; 0=no damage to plant)
Method in brief: as §2

[9] = tested on: giant foxtail (Setaria faberi); assay: Test G Post-Emergence Protocol; details: Setaria faberi, post-emergence, 312 h; for pest or weed control at 15.625 g/ha: 15.625 g ai/ha, evaluated after 13 days (100=total damage to plant; 0=no damage to plant), read-out: Foxtail, Giant damage rating; for pest or weed control at 62.5 g/ha: 62.5 g ai/ha, read-out: Foxtail, Giant damage rating (100=total damage to plant; 0=no damage to plant); for pest or weed control at 62.5 g/ha / pest or weed control at 250 g/ha: evaluated after 13 days; for pest or weed control at 250 g/ha: 250 g ai/ha, read-out: damage to plant, Foxtail, Giant (100=total damage to plant; 0=no damage to plant)
Method in brief: as §2

[10] = tested on: velvetleaf (Abutilon theophrasti); assay: Test G Post-Emergence Protocol; details: Abutilon theophrasti, post-emergence, 312 h; for pest or weed control at 15.625 g/ha: 15.625 g ai/ha, evaluated after 13 days (100=total damage to plant; 0=no damage to plant), read-out: Velvetleaf damage rating; for pest or weed control at 62.5 g/ha: 62.5 g ai/ha, read-out: Velvetleaf damage rating (100=total damage to plant; 0=no damage to plant); for pest or weed control at 62.5 g/ha / pest or weed control at 250 g/ha: evaluated after 13 days; for pest or weed control at 250 g/ha: 250 g ai/ha, read-out: damage to plant, Velvetleaf (100=total damage to plant; 0=no damage to plant)
Method in brief: as §2

[11] = tested on: barnyardgrass (Echinochloa crus-galli); assay: Test G Post-Emergence Protocol; details: Echinochloa crus-galli, post-emergence, 312 h; for pest or weed control at 15.625 g/ha: 15.625 g ai/ha, evaluated after 13 days (100=total damage to plant; 0=no damage to plant), read-out: Barnyardgrass damage rating; for pest or weed control at 62.5 g/ha: 62.5 g ai/ha, read-out: Barnyardgrass damage rating (100=total damage to plant; 0=no damage to plant); for pest or weed control at 62.5 g/ha / pest or weed control at 250 g/ha: evaluated after 13 days; for pest or weed control at 250 g/ha: 250 g ai/ha, read-out: damage to plant, Barnyardgrass (100=total damage to plant; 0=no damage to plant)
Method in brief: as §2

[12] = tested on: ivy-leaved morning glory (Ipomoea hederacea); assay: Test G Post-Emergence Protocol; details: Ipomoea, post-emergence, 312 h; for pest or weed control at 15.625 g/ha: 15.625 g ai/ha, evaluated after 13 days (100=total damage to plant; 0=no damage to plant), read-out: Morningglory, Ivy-leaved damage rating; for pest or weed control at 62.5 g/ha: 62.5 g ai/ha, read-out: Morningglory, Ivy-leaved damage rating (100=total damage to plant; 0=no damage to plant); for pest or weed control at 62.5 g/ha / pest or weed control at 250 g/ha: evaluated after 13 days; for pest or weed control at 250 g/ha: 250 g ai/ha, read-out: damage to plant, Morningglory, Ivy-leaved (100=total damage to plant; 0=no damage to plant)
Method in brief: as §2

| Structure (SMILES) | plant injury at 15.625 g/ha [1] [%] | plant injury at 62.5 g/ha [1] [%] | plant injury at 250 g/ha [1] [%] | pest or weed control at 15.625 g/ha [2] [%] | pest or weed control at 62.5 g/ha [2] [%] | pest or weed control at 250 g/ha [2] [%] | pest or weed control at 15.625 g/ha [3] [%] | pest or weed control at 62.5 g/ha [3] [%] | pest or weed control at 250 g/ha [3] [%] | pest or weed control at 15.625 g/ha [4] [%] | pest or weed control at 62.5 g/ha [4] [%] | pest or weed control at 250 g/ha [4] [%] | pest or weed control at 15.625 g/ha [5] [%] | pest or weed control at 62.5 g/ha [5] [%] | pest or weed control at 250 g/ha [5] [%] | pest or weed control at 15.625 g/ha [6] [%] | pest or weed control at 62.5 g/ha [6] [%] | pest or weed control at 250 g/ha [6] [%] | plant injury at 15.625 g/ha [7] [%] | plant injury at 62.5 g/ha [7] [%] | further results |
| --- | --- | --- | --- | --- | --- | --- | --- | --- | --- | --- | --- | --- | --- | --- | --- | --- | --- | --- | --- | --- | --- |
| CCc1nccc(NC(=O)[C@@H]2C(=O)N(C)C[C@H]2c2ccc(C(F)(F)F)cc2)c1Cl (racemic) [Compound 1538] | 0 | 0 | 0 | 0 | 0 | 0 | 0 | 20 | 60 | 0 | 0 | 0 | 0 | 30 | 50 | 0 | 0 | 70 | 0 | 0 | plant injury at 250 g/ha [7]: 10%; pest or weed control at 15.625 g/ha [8]: 0%; pest or weed control at 62.5 g/ha [8]: 0%; pest or weed control at 250 g/ha [8]: 0%; pest or weed control at 15.625 g/ha [9]: 10%; pest or weed control at 62.5 g/ha [9]: 30%; pest or weed control at 250 g/ha [9]: 50%; pest or weed control at 15.625 g/ha [10]: 0%; pest or weed control at 62.5 g/ha [10]: 0%; pest or weed control at 250 g/ha [10]: 0%; pest or weed control at 15.625 g/ha [11]: 0%; pest or weed control at 62.5 g/ha [11]: 0%; pest or weed control at 250 g/ha [11]: 10%; pest or weed control at 15.625 g/ha [12]: 0%; pest or weed control at 62.5 g/ha [12]: 0%; pest or weed control at 250 g/ha [12]: 0% |
| CN1C[C@@H](c2ccc(C(F)(F)F)cc2)[C@H](C(=O)Nc2nnc(C(F)(F)F)[nH]2)C1=O (racemic) [Compound 1550] | 0 | 0 | 0 | 0 | 0 | 0 | 0 | 0 | 0 | 0 | 0 | 0 | 0 | 0 | 0 | 0 | 0 | 0 | 0 | 10 | plant injury at 250 g/ha [7]: 30%; pest or weed control at 15.625 g/ha [8]: 0%; pest or weed control at 62.5 g/ha [8]: 30%; pest or weed control at 250 g/ha [8]: 40%; pest or weed control at 15.625 g/ha [9]: 0%; pest or weed control at 62.5 g/ha [9]: 0%; pest or weed control at 250 g/ha [9]: 0%; pest or weed control at 15.625 g/ha [10]: 0%; pest or weed control at 62.5 g/ha [10]: 0%; pest or weed control at 250 g/ha [10]: 0%; pest or weed control at 15.625 g/ha [11]: 0%; pest or weed control at 62.5 g/ha [11]: 0%; pest or weed control at 250 g/ha [11]: 0%; pest or weed control at 15.625 g/ha [12]: 0%; pest or weed control at 62.5 g/ha [12]: 0%; pest or weed control at 250 g/ha [12]: 0% |
| CN1C[C@@H](c2ccc(C(F)(F)F)cc2)[C@H](C(=O)Nc2cccc(F)c2C#N)C1=O (racemic) [Compound 1637] | 0 | 0 | 30 | 20 | 50 | 60 | 60 | 90 | 90 | 0 | 0 | 0 | 20 | 30 | 80 | 0 | 0 | 0 | 0 | 0 | plant injury at 250 g/ha [7]: 10%; pest or weed control at 15.625 g/ha [8]: 40%; pest or weed control at 62.5 g/ha [8]: 70%; pest or weed control at 250 g/ha [8]: 70%; pest or weed control at 15.625 g/ha [9]: 60%; pest or weed control at 62.5 g/ha [9]: 80%; pest or weed control at 250 g/ha [9]: 80%; pest or weed control at 15.625 g/ha [10]: 0%; pest or weed control at 62.5 g/ha [10]: 10%; pest or weed control at 250 g/ha [10]: 30%; pest or weed control at 15.625 g/ha [11]: 20%; pest or weed control at 62.5 g/ha [11]: 70%; pest or weed control at 250 g/ha [11]: 70%; pest or weed control at 15.625 g/ha [12]: 0%; pest or weed control at 62.5 g/ha [12]: 20%; pest or weed control at 250 g/ha [12]: 30% |
